Our source for the IC90 values is US20230203043A1, “NOVEL IMIDAZOPYRAZINE DERIVATIVES” (Hoffmann-La Roche Inc., priority 2020, published 2023).

Where a name gives a salt, the structure may show the parent alone.

For one experiment, the system named is Acinetobacter baumannii ATCC17961. Kind of experiment: Antimicrobial susceptibility testing: 90% growth inhibitory concentration (IC90) determination in Iso-Sensitest broth, OD600 growth. Format: cell-based. To be noted: Acinetobacter baumannii, ATCC17961, 16 h, read-out: A. baumannii ATCC 17961 IC90 (uM), strain ATCC 17961, OD600 growth over 16 h. In outline:
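OD600 read every 20 min for 16 h at 35±2° C; inhibition taken in log phase to derive IC90. Twofold, 10-point dilutions (e.g. 50–0.097 μM final), inoculum ~5×10^(5) CFU/ml.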
As to `C#CCn1cc(-c2cnc3c(Nc4ccc(C(=O)NCC(=O)NCCN)c(Cl)c4)nccn23)c(C(F)(F)F)n1` [Example 116, N-[2-(2-aminoethylamino)-2-oxoethyl]-2-chloro-4-[[3-[1-prop-2-ynyl-3-(trifluoromethyl)pyrazol-4-yl]imidazo[1,2-a]pyrazin-8-yl]amino]benzamide formate], the IC90 (in general, the concentration needed for an effect of 90%) came out at 0.22 µM. On the same count and under the same terms, in the case of `CCc1cc(Nc2nccn3c(-c4cn(CC(F)F)nc4C(F)(F)F)cnc23)ccc1C(=O)NCCNC(=O)[C@@H](C)N` [Example 643, (R)-N-(2-(2-aminopropanamido)ethyl)-4-((3-(1-(2,2-difluoroethyl)-3-(trifluoromethyl)-1H-pyrazol-4-yl)imidazo[1,2-a]pyrazin-8-yl)amino)-2-ethylbenzamide formate] it was 0.232 µM; in that of `C=C(Cl)C(C)n1cc(-c2cnc3c(Nc4ccc(C(=O)NCCOCCN)c(CC)c4)nccn23)c(C(F)(F)F)n1` (stereo not drawn) [Example 275, N-[2-(2-aminoethoxy)ethyl]-4-[[3-[1-(3-chlorobut-3-en-2-yl)-3-(trifluoromethyl)pyrazol-4-yl]imidazo[1,2-a]pyrazin-8-yl]amino]-2-ethylbenzamide formate], 0.169 µM. The same measure, in the same setting: in the case of `CCc1cc(Nc2nccn3c(-c4cn(CC(F)F)nc4C(F)(F)F)cnc23)ccc1C(=O)NC1CNC1` [Example 565, N-(azetidin-3-yl)-4-((3-(1-(2,2-difluoroethyl)-3-(trifluoromethyl)-1H-pyrazol-4-yl)imidazo[1,2-a]pyrazin-8-yl)amino)-2-ethylbenzamide formate] it was 0.188 µM. The same measure, in the same setting: with `CCc1cc(Nc2nccn3c(-c4c[nH]nc4C(F)(F)F)cnc23)ccc1C(=O)NCCNC(=O)CCCN` [Example 217, N-[2-(4-aminobutanoylamino)ethyl]-2-ethyl-4-[[3-[3-(trifluoromethyl)-1H-pyrazol-4-yl]imidazo[1,2-a]pyrazin-8-yl]amino]benzamide formate] the figure was 0.543 µM. `CCc1cc(Nc2nccn3c(-c4c[nH]nc4C(F)(F)F)cnc23)ccc1C(=O)N[C@@H](C)CN` [Example 349, N-[(2S)-1-aminopropan-2-yl]-2-ethyl-4-[[3-[3-(trifluoromethyl)-1H-pyrazol-4-yl]imidazo[1,2-a]pyrazin-8-yl]amino]benzamide formate]: the 90% effect concentration (IC90) amounted to 1.63 µM. The same measure, in the same setting: with `CCc1cc(Nc2nccn3c(-c4cn(C(C)C#N)nc4C(F)(F)F)cnc23)ccc1C(=O)NCCOCCCN` (stereo not drawn) [Example 639, N-(2-(3-aminopropoxy)ethyl)-4-((3-(1-(1-cyanoethyl)-3-(trifluoromethyl)-1H-pyrazol-4-yl)imidazo[1,2-a]pyrazin-8-yl)amino)-2-ethylbenzamide formate] the figure was 0.228 µM; with `C[C@@H](NC(=O)c1ccc(Nc2nccn3c(-c4c[nH]nc4C(F)(F)F)cnc23)cc1Cl)C(=O)NCCN` [Example 95, N-[(2R)-1-(2-aminoethylamino)-1-oxopropan-2-yl]-2-chloro-4-[[3-[3-(trifluoromethyl)-1H-pyrazol-4-yl]imidazo[1,2-a]pyrazin-8-yl]amino]benzamide formate], 1.53 µM; with `C#CC(C)n1cc(-c2cnc3c(Nc4ccc(C(=O)NCCOCCN)c(CC)c4)nccn23)c(C(F)(F)F)n1` (stereo not drawn) [Example 232, N-[2-(2-aminoethoxy)ethyl]-4-[[3-[1-but-3-yn-2-yl-3-(trifluoromethyl)pyrazol-4-yl]imidazo[1,2-a]pyrazin-8-yl]amino]-2-ethylbenzamide formate], 0.124 µM. `CCc1cc(Nc2nccn3c(-c4cn(CC(C)(C)CO)nc4C(F)(F)F)cnc23)ccc1C(=O)NCCOCCN` [Example 306, N-[2-(2-aminoethoxy)ethyl]-2-ethyl-4-[[3-[1-(3-hydroxy-2,2-dimethylpropyl)-3-(trifluoromethyl)pyrazol-4-yl]imidazo[1,2-a]pyrazin-8-yl]amino]benzamide formate]: the 90% effect concentration (IC90) was determined as 0.483 µM. On the same count and under the same terms, in the case of `N#CCn1cc(-c2cnc3c(Nc4ccc(C(=O)NCC(=O)NCCN)c(Cl)c4)nccn23)c(C(F)(F)F)n1` [Example 119, N-[2-(2-aminoethylamino)-2-oxoethyl]-2-chloro-4-[[3-[1-(cyanomethyl)-3-(trifluoromethyl)pyrazol-4-yl]imidazo[1,2-a]pyrazin-8-yl]amino]benzamide formate] it was 0.476 µM; in that of `N[C@@H]1CC[C@H](C(=O)N2CCN(C(=O)c3ccc(Nc4nccn5c(-c6c[nH]nc6C(F)(F)F)cnc45)cc3Cl)CC2)C1` [Example 342, [4-[(1S,3R)-3-aminocyclopentanecarbonyl]piperazin-1-yl]-[2-chloro-4-[[3-[3-(trifluoromethyl)-1H-pyrazol-4-yl]imidazo[1,2-a]pyrazin-8-yl]amino]phenyl]methanone formate], 0.228 µM.

The same experiment, now with this note: Acinetobacter baumannii, ATCC17961, 16 h, strain ATCC 17961, OD600 growth over 16 h, read-out: A. baumannii ATCC 17961 IC90.
Turning to `C#CCn1cc(-c2cnc3c(Nc4ccc(C(=O)N5CCN(C(=O)C6CCNCC6)CC5)c(CC)c4)nccn23)c(C(F)(F)F)n1` [Example 5, [2-ethyl-4-[[3-[1-prop-2-ynyl-3-(trifluoromethyl)pyrazol-4-yl]imidazo[1,2-a]pyrazin-8-yl]amino]phenyl]-[4-(piperidine-4-carbonyl)piperazin-1-yl]methanone], the concentration for an effect of 90% (IC90) came to 0.262 µM. As to `Cc1cc(Nc2nccn3c(-c4cn(CC#N)nc4C(F)(F)F)cnc23)ccc1C(=O)NCCOCCN` [Example 262, N-[2-(2-aminoethoxy)ethyl]-4-[[3-[1-(cyanomethyl)-3-(trifluoromethyl)pyrazol-4-yl]imidazo[1,2-a]pyrazin-8-yl]amino]-2-methylbenzamide], the IC90 turned out to be 1.1 µM. Consider `CCc1cc(Nc2nccn3c(-c4cn(CC(F)F)nc4C(F)F)cnc23)ccc1C(=O)N1CCN(C(=O)C2(O)CCNCC2)CC1` [Example 764, (4-(4-((3-(1-(2,2-difluoroethyl)-3-(difluoromethyl)-1H-pyrazol-4-yl)imidazo[1,2-a]pyrazin-8-yl)amino)-2-ethylbenzoyl)piperazin-1-yl)(4-hydroxypiperidin-4-yl)methanone], for which the concentration for an effect of 90% (IC90) was found to be 0.809 µM. For `CCc1cc(Nc2nccn3c(-c4cn(CC(F)F)nc4C(F)(F)F)cnc23)ccc1C(=O)NCCOC[C@@H](C)N` [Example 151, N-[2-[(2R)-2-aminopropoxy]ethyl]-4-[[3-[1-(2,2-difluoroethyl)-3-(trifluoromethyl)pyrazol-4-yl]imidazo[1,2-a]pyrazin-8-yl]amino]-2-ethylbenzamide], the concentration for an effect of 90% (IC90) amounted to 0.204 µM. Same read-out and setting: with `C#CCn1cc(-c2cnc3c(Nc4cc(C)c(C(=O)N5CCN(C(=O)[C@H]6CC[C@H](O)N6)CC5)c(F)c4)nccn23)c(C(F)(F)F)n1` [Example 646, (4-(2-fluoro-6-methyl-4-((3-(1-(prop-2-yn-1-yl)-3-(trifluoromethyl)-1H-pyrazol-4-yl)imidazo[1,2-a]pyrazin-8-yl)amino)benzoyl)piperazin-1-yl)((2R,5S)-5-hydroxypyrrolidin-2-yl)methanone] the figure was 0.243 µM; with `O=C(CNC(=O)c1ccc(Nc2nccn3c(-c4c[nH]nc4C(F)(F)F)cnc23)cc1Cl)N[C@H]1CCNC1` [Example 125, 2-chloro-N-[2-oxo-2-[[(3S)-pyrrolidin-3-yl]amino]ethyl]-4-[[3-[3-(trifluoromethyl)-1H-pyrazol-4-yl]imidazo[1,2-a]pyrazin-8-yl]amino]benzamide], 2.23 µM. `CCc1cc(Nc2nccn3c(-c4cn(CC(F)F)nc4C(F)(F)F)cnc23)ccc1C(=O)NCC(=O)N1CCNCC1` [Example 679, 4-[[3-[1-(2,2-difluoroethyl)-3-(trifluoromethyl)pyrazol-4-yl]imidazo[1,2-a]pyrazin-8-yl]amino]-2-ethyl-N-(2-oxo-2-piperazin-1-yl-ethyl) benzamide formate]: the 90% effect concentration (IC90) stood at 0.322 µM. Turning to `CCc1cc(Nc2nccn3c(-c4cn(Cc5ccncn5)nc4C(F)(F)F)cnc23)ccc1C(=O)NCCOCCN` [Example 2, N-[2-(2-aminoethoxy)ethyl]-2-ethyl-4-[[3-[1-(pyrimidin-4-ylmethyl)-3-(trifluoromethyl)pyrazol-4-yl]imidazo[1,2-a]pyrazin-8-yl]amino]benzamide], the IC90 came to 0.513 µM. Still for that read-out and setting: in the case of `CCc1cc(Nc2nccn3c(-c4cn(CC(F)F)nc4C(F)(F)F)cnc23)ccc1C(=O)NCCOCC(C)(C)N` [Example 50, N-[2-(2-amino-2-methylpropoxy)ethyl]-4-[[3-[1-(2,2-difluoroethyl)-3-(trifluoromethyl)pyrazol-4-yl]imidazo[1,2-a]pyrazin-8-yl]amino]-2-ethylbenzamide] it was 0.121 µM; in that of `CCCn1cc(-c2cnc3c(Nc4ccc(C(=O)NCCOCCN)c(CC)c4)nccn23)c(C(F)(F)F)n1` [Example 25, N-[2-(2-aminoethoxy)ethyl]-2-ethyl-4-[[3-[1-propyl-3-(trifluoromethyl)pyrazol-4-yl]imidazo[1,2-a]pyrazin-8-yl]amino]benzamide hydrochloride], 0.141 µM.

The same experiment, now with this note: strain ATCC 17961, OD600 growth over 16 h, read-out: A. baumannii ATCC 17961 IC90.
As for `N#CCn1cc(-c2cnc3c(Nc4ccc(C(=O)N5CCN(C(=O)NCCN)CC5)c(Cl)c4)nccn23)c(C(F)(F)F)n1` [Example 264, N-(2-aminoethyl)-4-[2-chloro-4-[[3-[1-(cyanomethyl)-3-(trifluoromethyl)pyrazol-4-yl]imidazo[1,2-a]pyrazin-8-yl]amino]benzoyl] piperazine-1-carboxamide formate], the 90% effect concentration (IC90) amounted to 0.451 µM.

Consider `NC1CCC(NC(=O)N2CCN(C(=O)c3ccc(Nc4nccn5c(-c6c[nH]nc6C(F)(F)F)cnc45)cc3Cl)CC2)CC1` (stereo not drawn) [Example 287, N-(4-aminocyclohexyl)-4-[2-chloro-4-[[3-[3-(trifluoromethyl)-1H-pyrazol-4-yl]imidazo[1,2-a]pyrazin-8-yl]amino]benzoyl] piperazine-1-carboxamide formate], for which the 90% effect concentration (IC90) is 0.23 µM.
